Data: patent US6183736A, “Small peptides with antipathogenic activity, treated plants and methods for treating same” (USDA/ARS Southern Regional Research Center, priority 1999, dated 2001)
Read-outs that look alike come from different tables or passages of the source. Residues, ends and D or L forms follow the SMILES beside them. No end group written: not given here.

Tests used:
[1] = system: Absydia corymbifera; details: cited from earlier work
[2] = system: Aspergillus niger; details: cited from earlier work
[3] = system: Candida albicans; details: cited from earlier work
[4] = system: Fusarium oxysporum; details: cited from earlier work
[5] = system: Kluyveromyces bulgaris; details: cited from earlier work
[6] = system: Saccharomyces cerevisae; details: cited from earlier work
[7] = system: various yeasts, fungi and phytopathogenic fungi; details: cited from earlier work
[8] = system: bacteria; details: cited from earlier work
[9] = system: Aspergillus flavus; assay: Disc plate diffusion assay; type: cell-based; details: purified peptide on filter paper disc
Description: Mycelium plugs from actively growing fungal cultures were placed in the center of the petri plate. After incubation at 27° C. to allow vegetative growth, samples were applied on sterile filter paper discs laid on the agar surface. Precipitation with ammonium sulfate. The 7th day culture filtrate was sequentially precipitated with 20, 40, 60 and 80% ammonium sulfate. […] After complete purification of the antifungal peptides as described in example 8, removing salt by purification on a […] cartridge (waters) and freeze drying, both peptides were quantified by weight. […] The antifungal assays are described in example 2.

[10] = system: Aspergillus flavus; type: cell-based
Description: Description of the method for the antifungal assays. […] Each well contained 100 μl Potato Dextrose Agar (PDA, Difco Laboratories) and 100 μl of sample and was inoculated with 500 spores of Aspergillus flavus. Fungal growth was monitored by reading optical density (O.D.) at 560 nm (Dynatech microplate reader). […] After complete purification of the antifungal peptides as described in example 8, removing salt by purification on a […] cartridge (waters) and freeze drying, both peptides were quantified by weight. […] The antifungal assays are described in example 2.

[11] = system: Micrococcus luteus; details: cited from earlier work
[12] = system: Micrococcus luteus protoplast; details: cited from earlier work
[13] = system: Ophiostoma ulmi; details: cited from earlier work
[14] = system: Verticillium dahliae; details: cited from earlier work
[15] = system: Ceratocystis fagacearum; details: cited from earlier work
[16] = system: Cryphonectria parasitica; details: cited from earlier work
[17] = system: Aspergillus niger; details: cited from earlier work; remark: listed apart in the source
[18] = system: Cladosporium cladosporioides; details: cited from earlier work
[19] = system: Fusarium oxysporum; details: cited from earlier work; remark: listed apart in the source
[20] = system: Mycosphaerella pinodes; details: cited from earlier work
[21] = system: Candida albicans; details: cited from earlier work; remark: listed apart in the source
[22] = system: Candida tropicalis; details: cited from earlier work
[23] = system: Saccharomyces cerevisiae; details: cited from earlier work
[24] = system: Kluyveromyces bulgaris; details: cited from earlier work; remark: listed apart in the source
[25] = system: Botrytis cinerea; details: cited from earlier work
[26] = system: Neurospora crassa; details: cited from earlier work
[27] = system: Penicillium chysogenum; details: cited from earlier work
[28] = system: Pleospora herbarum; details: cited from earlier work
[29] = system: Rhodotorula pillimanae; details: cited from earlier work
[30] = system: Sclerotina fructigena; details: cited from earlier work
[31] = system: Sclerotina sclerotiorum; details: cited from earlier work
[32] = system: Stemphylium radicinum; details: cited from earlier work
[33] = system: Trichophyton mentagrophytes; details: cited from earlier work
[34] = system: Azotobacter vinelandii; details: cited from earlier work
[35] = system: Brucella brochiseptica; details: cited from earlier work
[36] = system: Escherichia coli K12; details: cited from earlier work
[37] = system: Streptomyces albus G; details: cited from earlier work
[38] = system: Bacillus cereus; details: cited from earlier work
[39] = system: Micrococcus luteus; details: cited from earlier work; remark: listed apart in the source
[40] = system: Sarcinia lutea; details: cited from earlier work
[41] = system: Staphylococcus aureus; details: cited from earlier work

Which Antifungal activity [1] does the source give for “Bacillomycin D (NYNPEST; also: cyclic lipopeptide with β-amino fatty acid, ring closure not described) [iturin lipopeptide: Asn Tyr Asn Pro Glu Ser Thr with β amino acid n-C14, i-C15, a-C15]” here?
The Antifungal activity was “antifungal”.

What about the Antifungal activity [2] of the same molecule?
Its Antifungal activity is “antifungal”.

What about the Antifungal activity [3] of the same molecule?
The Antifungal activity was “antifungal”.

And the Antifungal activity [4]?
Its Antifungal activity is “antifungal”.

And the Antifungal activity [5]?
Its Antifungal activity is “antifungal”.

What about the Antifungal activity [6] of the same molecule?
Its Antifungal activity is “antifungal”.

Which Antifungal activity [7] does the source give for “Bacillomycin F (NYNQPNT; also: cyclic lipopeptide with β-amino fatty acid, ring closure not described) [iturin lipopeptide: Asn Tyr Asn Gln Pro Asn Thr with β amino acid i-C16, i-C17, a-C17]” here?
The Antifungal activity was “strong antifungal activity”.

And the Antibacterial activity [8]?
The Antibacterial activity was “weak antibacterial activity”.

Which results are given for “Iturin A (NYNQPNS; also: cyclic with β-amino fatty acid, ring closure not described) [cyclic lipopeptide of Bacillus subtilis: Asn Tyr Asn Gln Pro Asn Ser with β amino acid n-C14, i-C15, a-C15]”?
Disc plate diffusion assay Minimal amount to inhibit hyphal growth [9]: > 50 µg; Microtiter plate Minimal inhibitory concentration (MIC) ([10]; Aspergillus flavus, 500 spores per well, O.D. 560 nm): 250 µM; Inhibition of growth of Micrococcus luteus [11]: inhibited the growth; Lysis of Micrococcus luteus protoplast [12]: able to lyse

Which “Inhibition of growth of Micrococcus luteus” value [11] does the source give for “Bacillomycin L (DYNSQST; also: cyclic lipopeptide with β-amino fatty acid, ring closure not described) [iturin lipopeptide: Asp Tyr Asn Ser Gln Ser Thr with β amino acid n-C14, i-C15, a-C15]” here?
Its value is “inhibited the growth”.

And the “Lysis of Micrococcus luteus protoplast” value [12]?
The value was “no effect”.

Which results are given for `CCCCCCCCCCCCC[C@@H]1CC(=O)N[C@@H](CC(N)=O)C(=O)N[C@H](Cc2ccc(O)cc2)C(=O)N[C@H](CC(N)=O)C(=O)N2CCC[C@H]2C(=O)N[C@@H](CCC(=O)O)C(=O)N[C@H](CO)C(=O)N[C@@H]([C@@H](C)O)C(=O)N1` [a2] (HELM PEPTIDE1{E.[dS].T.[CCCCCCCCCCCCC[C@H](CC(=O)[*:2])N[*:1]].N.[dY].[dN].P}$PEPTIDE1,PEPTIDE1,1:R1-8:R2$$$V2.0)?
Disc plate diffusion assay Minimal amount to inhibit hyphal growth [9]: 3 µg; Microtiter plate Minimal inhibitory concentration (MIC) [10]: 130 µM

Which “Inhibition of growth of Micrococcus luteus” value [11] does the source give for “Mycosubtilin (NYNQPSN; also: cyclic lipopeptide with β-amino fatty acid, ring closure not described) [Mycosubtlin, iturin lipopeptide: Asn Tyr Asn Gln Pro Ser Asn with β amino acid i-C16, a-C17]” here?
Its value is “inhibited the growth”.

And the “Lysis of Micrococcus luteus protoplast” value [12]?
Its value is “able to lyse”.

Which “Disc plate diffusion assay Minimal amount to inhibit hyphal growth” value [9] does the source give for “a1: cyclic lipopeptide from B. subtilis AU195, bacillomycin D family, [M+H] 1045.5, linearised sequence STNYNPE, β-amino fatty acid believed of 15 carbons (not fully specified; also: cyclic lipopeptide, C15 β-amino fatty acid (hydroxy fatty acid at Thr suggested), sequence given after Glu-C linearisation)” here?
Its value is 15 µg.

Which results are given for Bacillomycin Lc?
Antifungal activity [13]: antifungal activity; Antifungal activity [14]: antifungal activity; Antifungal activity [15]: antifungal activity; Antifungal activity [16]: antifungal activity

With Bacillomycin Fb as the molecule, how does the MIC [17] read?
Its MIC is 25 µg/mL.

And the MIC [18]?
Its MIC is 25 µg/mL.

And the MIC [19]?
The MIC was over 200 µg/mL.

And the MIC [20]?
Its MIC is 100 µg/mL.

And the MIC [21]?
Its MIC is over 200 µg/mL.

What about the MIC [22] of the same molecule?
Its MIC is over 200 µg/mL.

What about the MIC [23] of the same molecule?
The MIC was 25 µg/mL.

What about the MIC [24] of the same molecule?
Its MIC is 75 µg/mL.

With Bacillomycin Fa as the molecule, how does the MIC [17] read?
The MIC was 40 µg/mL.

And the MIC [25]?
Its MIC is 20 µg/mL.

What about the MIC [19] of the same molecule?
Its MIC is over 320 µg/mL.

And the MIC [20]?
Its MIC is 10 µg/mL.

And the MIC [26]?
The MIC was 80 µg/mL.

What about the MIC [27] of the same molecule?
Its MIC is 20 µg/mL.

And the MIC [28]?
Its MIC is 10 µg/mL.

What about the MIC [29] of the same molecule?
Its MIC is 80 µg/mL.

What about the MIC [30] of the same molecule?
Its MIC is 40 µg/mL.

And the MIC [31]?
Its MIC is 50 µg/mL.

What about the MIC [32] of the same molecule?
Its MIC is 320 µg/mL.

What about the MIC [33] of the same molecule?
The MIC was 20 µg/mL.

And the MIC [21]?
Its MIC is 40 µg/mL.

What about the MIC [22] of the same molecule?
The MIC was 40 µg/mL.

What about the MIC [23] of the same molecule?
Its MIC is 10 µg/mL.

And the MIC [34]?
The MIC was over 400 µg/mL.

What about the MIC [35] of the same molecule?
The MIC was over 400 µg/mL.

And the MIC [36]?
Its MIC is over 400 µg/mL.

And the MIC [37]?
Its MIC is over 400 µg/mL.

And the MIC [38]?
The MIC was over 400 µg/mL.

And the MIC [39]?
Its MIC is 200 µg/mL.

What about the MIC [40] of the same molecule?
Its MIC is over 400 µg/mL.

And the MIC [41]?
The MIC was over 400 µg/mL.

Which MIC [17] does the source give for Bacillomycin Fc here?
Its MIC is 30 µg/mL.

What about the MIC [18] of the same molecule?
The MIC was 40 µg/mL.

What about the MIC [19] of the same molecule?
Its MIC is over 200 µg/mL.

And the MIC [20]?
Its MIC is 30 µg/mL.

And the MIC [21]?
The MIC was over 200 µg/mL.

What about the MIC [22] of the same molecule?
Its MIC is over 200 µg/mL.

And the MIC [23]?
The MIC was 30 µg/mL.

What about the MIC [24] of the same molecule?
The MIC was 40 µg/mL.
